Measured values as given in PubChem BioAssay (NCI).
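Tested at 5 concentrations; 48 h exposure; 96-well plates; endpoints linearly interpolated, else capped at highest concentration. GI50 is the concentration that inhibits growth by half. Definition used: TGI = concentration required for complete inhibition of growth.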

Assays:
Assay in all cases: growth of human tumour cells (NCI), 48 h
[1] = test system: HS 578T breast
[2] = test system: SNB-19 CNS
[3] = test system: ACHN renal
[4] = test system: SK-MEL-28 melanoma
[5] = test system: SN12C renal
[6] = test system: CCRF-CEM leukemia
[7] = test system: MALME-3M melanoma
[8] = test system: RPMI-8226 leukemia
[9] = test system: K-562 leukemia
[10] = test system: A498 renal
[11] = test system: HCT-116 colon
[12] = test system: BT-549 breast
[13] = test system: U251 CNS
[14] = test system: SNB-75 CNS
[15] = test system: UACC-257 melanoma
[16] = test system: SK-MEL-5 melanoma
[17] = test system: HL-60(TB) leukemia
[18] = test system: OVCAR-3 ovarian
[19] = test system: COLO 205 colon
[20] = test system: HCT-15 colon
[21] = test system: NCI-H226 lung
[22] = test system: 786-0 renal
[23] = test system: HOP-62 NSCLC
[24] = test system: HCC-2998 colon
[25] = test system: RXF 393 renal
[26] = test system: SK-OV-3 ovarian
[27] = test system: KM12 colon
[28] = test system: PC-3 prostate
[29] = test system: UACC-62 melanoma
[30] = test system: SK-MEL-2 melanoma
[31] = test system: UO-31 renal
[32] = test system: M14 melanoma
[33] = test system: MDA-MB-231 breast
[34] = test system: NCI-H460 lung
[35] = test system: HT29 colon
[36] = test system: NCI/ADR-RES ovarian
[37] = test system: MCF7 breast
[38] = test system: SW-620 colon
[39] = test system: TK-10 renal
[40] = test system: NCI-H23 lung
[41] = test system: NCI-H522 lung
[42] = test system: IGROV1 ovarian
[43] = test system: MOLT-4 leukemia
[44] = test system: SF-268 CNS
[45] = test system: OVCAR-5 ovarian
[46] = test system: A549 NSCLC
[47] = test system: DU-145 prostate
[48] = test system: SR leukemia
[49] = test system: SF-295 CNS
[50] = test system: HOP-92 NSCLC
[51] = test system: SF-539 CNS
[52] = test system: LOX IMVI melanoma
[53] = test system: MDA-MB-435
[54] = test system: CAKI-1 renal
[55] = test system: T-47D breast
[56] = test system: OVCAR-4 ovarian
[57] = test system: EKVX NSCLC

`CC(C)OC(=O)c1cc(NS(=O)(=O)c2ccc3ccccc3c2)cc(C(=O)OC(C)C)c1` showed a GI50 [1] of 20.7 µM, a TGI [1] of 49.8 µM and a GI50 [2] of 33.5 µM. It also gave a TGI [2] greater than 100 µM, a GI50 [3] of 33.1 µM and a TGI [3] greater than 100 µM. The GI50 [4] was 24.6 µM, the TGI [4] was 73.2 µM and the GI50 [5] was 29.9 µM. It also gave a TGI [5] greater than 100 µM, a GI50 [6] of 22.5 µM and a TGI [6] of 88.9 µM. For the same compound, the GI50 [7] was 32.7 µM, the TGI [7] was greater than 100 µM and the GI50 [8] was 15.6 µM. The TGI [8] was 45.3 µM, the GI50 [9] was 29.6 µM and the TGI [9] was greater than 100 µM. The GI50 [10] was 17.2 µM, the TGI [10] was 54.9 µM and the GI50 [11] was 24.2 µM. For the same compound, the TGI [11] was greater than 100 µM, the GI50 [12] was 17.2 µM and the TGI [12] was 43.2 µM. For the same compound, the GI50 [13] was 31.7 µM, the TGI [13] was greater than 100 µM and the GI50 [14] was 23.9 µM. For the same compound, the TGI [14] was 66.2 µM, the GI50 [15] was 30.5 µM and the TGI [15] was greater than 100 µM. For the same compound, the GI50 [16] was 16 µM, the TGI [16] was 31.8 µM and the GI50 [17] was 24.2 µM. For the same compound, the TGI [17] was 65.8 µM, the GI50 [18] was 24 µM and the TGI [18] was 94.7 µM. For the same compound, the GI50 [19] was 16 µM, the TGI [19] was 34.3 µM and the GI50 [20] was 28.4 µM. It also gave a TGI [20] greater than 100 µM, a GI50 [21] of 26.8 µM and a TGI [21] greater than 100 µM. It also gave a GI50 [22] of 30.9 µM, a TGI [22] greater than 100 µM and a GI50 [23] of 33.1 µM. It also gave a TGI [23] greater than 100 µM, a GI50 [24] of 17.3 µM and a TGI [24] of 47.2 µM. For the same compound, the GI50 [25] was 20.9 µM, the TGI [25] was greater than 100 µM and the GI50 [26] was 32.3 µM. It also gave a TGI [26] greater than 100 µM, a GI50 [27] of 32.3 µM and a TGI [27] greater than 100 µM. It also gave a GI50 [28] of 23.8 µM, a TGI [28] of 91.8 µM and a GI50 [29] of 17 µM. For the same compound, the TGI [29] was 48.6 µM, the GI50 [30] was 26.2 µM and the TGI [30] was 73.6 µM. For the same compound, the GI50 [31] was 26.4 µM, the TGI [31] was greater than 100 µM and the GI50 [32] was 17.6 µM. The TGI [32] was 46.8 µM, the GI50 [33] was 21.4 µM and the TGI [33] was 76.5 µM. For the same compound, the GI50 [34] was 13.4 µM, the TGI [34] was 38.8 µM and the GI50 [35] was 34.1 µM. For the same compound, the TGI [35] was greater than 100 µM, the GI50 [36] was 16.3 µM and the TGI [36] was 56.6 µM. For the same compound, the GI50 [37] was 12.3 µM, the TGI [37] was 45.3 µM and the GI50 [38] was 30.3 µM. The TGI [38] was greater than 100 µM, the GI50 [39] was 45.2 µM and the TGI [39] was greater than 100 µM. It also gave a GI50 [40] of 21.9 µM, a TGI [40] of 73.9 µM and a GI50 [41] of 18.3 µM. For the same compound, the TGI [41] was 45.9 µM, the GI50 [42] was 35.2 µM and the TGI [42] was greater than 100 µM. It also gave a GI50 [43] of 22 µM, a TGI [43] of 63.4 µM and a GI50 [44] of 15.8 µM. For the same compound, the TGI [44] was 57.3 µM, the GI50 [45] was 18.3 µM and the TGI [45] was 48.8 µM. The GI50 [46] was 27.1 µM, the TGI [46] was 93.5 µM and the GI50 [47] was 28.8 µM. It also gave a TGI [47] greater than 100 µM, a GI50 [48] of 24.5 µM and a TGI [48] of 76.2 µM. The GI50 [49] was 22.2 µM, the TGI [49] was 79.7 µM and the GI50 [50] was 24.9 µM. It also gave a TGI [50] of 64.9 µM, a GI50 [51] of 24.6 µM and a TGI [51] of 61.3 µM. For the same compound, the GI50 [52] was 28.5 µM, the TGI [52] was greater than 100 µM and the GI50 [53] was 23.1 µM. For the same compound, the TGI [53] was 73.2 µM, the GI50 [54] was 36.4 µM and the TGI [54] was greater than 100 µM. The GI50 [55] was 17.6 µM, the TGI [55] was 58.5 µM and the GI50 [56] was 22 µM. The TGI [56] was 82.3 µM, the GI50 [57] was 25 µM and the TGI [57] was 89.2 µM.
